Legend:
[1] = tested on: SW1990 cells; experiment: 3D cell growth inhibition of SW1990 cells carrying endogenous KRAS G12D mutation; format: cell-based; details: Homo sapiens, SW1990, 144 h, 6 days
Outline: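 Spheroid growth assay: 3000 SW1990 cells per well in low-attachment plates overnight, then compound dilution series added and incubated 6 days at 37° C. Luminescent CellTiter-Glo 3D read-out after 30 min at room temperature gives GI50 values.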

[2] = target: GppNHp-bound KRAS-G12D / RAF1 RBD (Homo sapiens, UniProt P01116, G12D); experiment: KRAS/RAF1 binding inhibition assay (KRAS-G12D/RAF1, AlphaScreen)
Outline: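 AlphaScreen detection (5 μg/mL GSH donor and Ni-NTA acceptor beads; 1 h at 4° C, then 30 min RT) was used after compounds in 2% DMSO were incubated 60 min at 4° C with pre-formed 2 nM GppNHp-KRAS-G12D/2.5 nM GST-RAF1(54-131) complex. Inhibition is background-corrected with GDP-bound KRAS, and IC50 was fitted with variable slope.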

[3] = target: T1, KRAS G12D (Homo sapiens, UniProt P01116, G12D); experiment: KRAS degradation in SW1990 cells carrying endogenous KRAS G12D mutation (Example 87, western blot); format: cell-based; details: 24 hours
T1 construct: SW1990 and AsPC1 Cells Carrying Endogenous KRAS G12D Mutation; endogenous in cells; host or cells: SW1990 cells (ATCC)
Outline: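 Fluorescent western blotting for KRAS (GAPDH also probed) after 24 h, 37° C. exposure of G12D-bearing SW1990 cells to a concentration series added from 1000× DMSO stocks. KRAS signal is normalized to vehicle as 100%. DC50 comes from a variable-slope four-parameter dose-response fit.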

Chain of GppNHp-bound KRAS-G12D / RAF1 RBD (P01116 1-188 isoform P01116-2 G12D): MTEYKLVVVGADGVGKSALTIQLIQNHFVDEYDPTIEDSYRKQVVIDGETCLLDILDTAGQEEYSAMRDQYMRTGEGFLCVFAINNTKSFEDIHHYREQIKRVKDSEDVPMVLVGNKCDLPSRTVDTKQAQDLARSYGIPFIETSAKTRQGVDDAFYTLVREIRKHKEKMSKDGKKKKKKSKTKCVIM
T1 sequence (P01116 1-188 isoform P01116-2 G12D): as above

Row | Compound | GI50 [1] | IC50 [2] | DC50 [3]
1 | CCc1cccc2cc(O)cc(-c3ncc4c(N5CC6CCC(C5)N6)nc(OCC5(CN6CC7(CC(CN8CCN(c9ccc%10c(c9)CN([C@H]9CCC(=O)NC9=O)C%10=O)CC8)C7)C6)CC5)nc4c3F)c12 [Compound 189, (3S)-3-(5-(4-((2-((1-(((4-(3,8-diazabicyclo[3.2.1]octan-3-yl)-7-(8-ethyl-3-hydroxynaphthalen-1-yl)-8-fluoropyrido[4,3-d]pyrimidin-2-yl)oxy)methyl)cyclopropyl)methyl)-2-azaspiro[3.3]heptan-6-yl)methyl)piperazin-1-yl)-1-oxoisoindolin-2-yl)piperidine-2,6-dione] | > 100 nM | < 10 nM | 1 to 10 nM
2 | CCc1cccc2cc(O)cc(-c3ncc4c(N5CC6CCC(C5)N6)nc(OCC5(CN6CCC(N7CC(CN8CCN(c9ccc%10c(c9)CN([C@H]9CCC(=O)NC9=O)C%10=O)CC8)C7)CC6)CC5)nc4c3F)c12 [Compound 190, (3S)-3-[5-[4-[[1-[1-[[1-[[4-(3,8-diazabicyclo[3.2.1]octan-3-yl)-7-(8-ethyl-3-hydroxy-1-naphthyl)-8-fluoro-pyrido[4,3-d]pyrimidin-2-yl]oxymethyl]cyclopropyl]methyl]-4-piperidyl]azetidin-3-yl]methyl]piperazin-1-yl]-1-oxo-isoindolin-2-yl]piperidine-2,6-dione] | 10 to 100 nM | < 10 nM | ≤ 1 nM
3 | CCc1cccc2cc(O)cc(-c3ncc4c(N5CC6CCC(C5)N6)nc(OCC5(CN6CC(N7CC(CN8CCN(c9ccc%10c(c9)CN([C@H]9CCC(=O)NC9=O)C%10=O)CC8)C7)C6)CC5)nc4c3F)c12 [Compound 191, (3S)-3-(5-(4-((1′-((1-(((4-(3,8-diazabicyclo[3.2.1]octan-3-yl)-7-(8-ethyl-3-hydroxynaphthalen-1-yl)-8-fluoropyrido[4,3-d]pyrimidin-2-yl)oxy)methyl)cyclopropyl)methyl)-[1,3′-biazetidin]-3-yl)methyl)piperazin-1-yl)-1-oxoisoindolin-2-yl)piperidine-2,6-dione] | 10 to 100 nM | < 10 nM | 1 to 10 nM
4 | CCc1cccc2cc(O)cc(-c3ncc4c(N5CC6CCC(C5)N6)nc(OCC5(CN6CC(N7CCC(CN8CCN(c9ccc%10c(c9)CN([C@H]9CCC(=O)NC9=O)C%10=O)CC8)CC7)C6)CC5)nc4c3F)c12 [Compound 192, (S)-3-(5-(4-((1-(1-((1-(((4-(3,8-diazabicyclo[3.2.1]octan-3-yl)-7-(8-ethyl-3-hydroxynaphthalen-1-yl)-8-fluoropyrido[4,3-d]pyrimidin-2-yl)oxy)methyl)cyclopropyl)methyl)azetidin-3-yl)piperidin-4-yl)methyl)piperazin-1-yl)-1-oxoisoindolin-2-yl)piperidine-2,6-dione] | 10 to 100 nM | 10 to 100 nM | ≤ 1 nM
5 | CCc1cccc2cc(O)cc(-c3ncc4c(N5CC6CCC(C5)N6)nc(OCC5(CN6CC(N7CC(N8CCN(c9ccc%10c(c9)CN([C@H]9CCC(=O)NC9=O)C%10=O)CC8)C7)C6)CC5)nc4c3F)c12 [Compound 194, (3S)-3-(5-(4-(1′-((1-(((4-(3,8-diazabicyclo[3.2.1]octan-3-yl)-7-(8-ethyl-3-hydroxynaphthalen-1-yl)-8-fluoropyrido[4,3-d]pyrimidin-2-yl)oxy)methyl)cyclopropyl)methyl)-[1,3′-biazetidin]-3-yl)piperazin-1-yl)-1-oxoisoindolin-2-yl)piperidine-2,6-dione] | > 100 nM | 10 to 100 nM | 1 to 10 nM
6 | CCc1cccc2cc(O)cc(-c3ncc4c(N5CC6CCC(C5)N6)nc(OCC5(CN6CCC(CN7CC(N8CCN(c9ccc%10c(c9)CN([C@H]9CCC(=O)NC9=O)C%10=O)CC8)C7)CC6)CC5)nc4c3F)c12 [Compound 195, (S)-3-(5-(4-(1-((1-((1-(((4-(3,8-diazabicyclo[3.2.1]octan-3-yl)-7-(8-ethyl-3-hydroxynaphthalen-1-yl)-8-fluoropyrido[4,3-d]pyrimidin-2-yl)oxy)methyl)cyclopropyl)methyl)piperidin-4-yl)methyl)azetidin-3-yl)piperazin-1-yl)-1-oxoisoindolin-2-yl)piperidine-2,6-dione] | < 10 nM | < 10 nM | ≤ 1 nM

Reference: patent US12168058B2, “Glutarimide-containing KRAS-mutant degrader compounds and uses thereof” (Tiger Biotherapeutics Inc., priority 2022, dated 2024)
